Experimental data from EP0522944A2, “Use of 3-(3-pyridinyl)-1H,3H-pyrrolo(1,2-c)thiazole-7-carboxamide for the treatment of retroviral infections” (RHONE-POULENC RORER S.A., priority 1991, dated 1993).

Key:
Assay type in all cases: cell-based
cellules U1 = test: Viability of the U1 cells in presence of the product; settings: whatever the concentration used (0,1 to 100 µM)
Experimental: (§1) Les cultures cellulaires sont prélévées en phase de croissance exponantielle et remises en culture à raison d'une concentration finale de 2x105 cellules/ml, en présence de différentes concentrations du produit à étudier. 30 minutes après, l'ensemble des cultures est additionné de TNFa ou de GM-CSF (Granulocyte Macrophage Colony Stimulating Factor) plus 11-6 (Interleukine-6). Chaque essai est fait en double, excepté les contrôles qui sont faits en quadruple. Chaque jour suivant, une fraction de surnageant des cultures est prélevée, et congelée en vue de la mesure de la reverse transcriptase. Les cellules sont nourries si nécessaire, avec du milieu frais ne contenant ni produit à étudier, ni activateur.

virus HIV-1 [1] = test: Duration of action: pretreatment of U1 cells with the product before stimulation by TNF, PMA or GM-CSF + IL-6, reverse transcriptase production (second series)
Description: (§2) On utilise des lignées cellulaires U1 obtenues après infection de la lignée promonocytaire, U937, par le virus HIV-1 et sélectionnée le selon la capacité à augmenter la production virale en réponse au Phorbol My- ristate Acétate (PMA), au TNF et à d'autres médiateurs [Folks et al., Science, 238, 800 (1987)]. L'activité de la reverse transcriptase est utilisée comme un indicateur de la production virale. On analyse ainsi l'effet de concentrations croissantes du produit à étudier sur des lignées cellulaires stimulées.
as §1, with “30 minutes après, l'ensemble des cultures est additionné de TNFa ou de GM-CSF (Granulocyte Macrophage Colony Stimulating Factor) plus 11-6 (Interleukine-6).” left out
(§3) La mesure de l'activité de la reverse transcriptase est faite par les techniques connues, en double exemplaire [Strebel et al., Nature, 328, 728 (1987)].
Dans une seconde série d'essais, la durée d'action du (+) (pyridyl-3)-3 1H,3H-pyrrolo[1,2-c]thiazolecarboxamide-7 a été testée.

virus HIV-1 [2] = test: Reverse transcriptase activity as indicator of viral production in chronically HIV-1 infected U1 cells stimulated with TNFa or GM-CSF + IL-6 (first series)
Description: Les effets du (+) (pyridyl-3)-3 1H,3H-pyrrolo[1,2-c] thiazolecarboxamide-7 sur l'induction du virus HIV-1 ont été étudiés sur des lignées cellulaires chroniquement infectées.
as §2, §1, §3
Le (+) (pyridyl-3)-3 1 H,3H-pyrrolo[1,2-c]thiazole carboxamide-7 est étudié aux concentrations de 100, 10, 1 et 0,1 µM.
Le TNFa est additionné à raison de 100, 10 ou 1 Unités/ml. Le GM-CSF + 11-6 est additionné à raison de 100 U/mi. Certains contrôles ne recoivent pas l'activateur. D'autres contrôles ne reçoivent pas le produit à étudier. D'autres ne reçoivent ni le produit ni l'activateur.

NC(=O)c1ccn2c1CSC2c1cccnc1 (single isomer, unassigned; (+)) [produit, (+) (pyridyl-3)-3 1H,3H-pyrrolo[1,2-c]thiazole carboxamide-7]
viabilité des cellules (cellules U1): sans effet | Production de Reverse Transcriptase Coups par minute (cpm) (virus HIV-1 [1]; Tableau I, U1 cells + product 100µM, no stimulation, contact time 0,5 h): <100 cpm | Production de Reverse Transcriptase Coups par minute (cpm) (virus HIV-1 [1]; Tableau I, U1 cells + product 100µM, no stimulation, contact time 2 h): <100 cpm | Production de Reverse Transcriptase Coups par minute (cpm) (virus HIV-1 [1]; Tableau I, U1 cells + product 100µM, no stimulation, contact time 7 h): <100 cpm | Production de Reverse Transcriptase Coups par minute (cpm) (virus HIV-1 [1]; Tableau I, U1 cells + product 100µM, no stimulation, contact time 10 h): <100 cpm | Production de Reverse Transcriptase Coups par minute (cpm) (virus HIV-1 [1]; Tableau II, U1 cells + product 100µM, no stimulation, contact time 0,5 h): env.100 cpm | Production de Reverse Transcriptase Coups par minute (cpm) (virus HIV-1 [1]; Tableau II, U1 cells + product 100µM, no stimulation, contact time 2 h): env.100 cpm | Production de Reverse Transcriptase Coups par minute (cpm) (virus HIV-1 [1]; Tableau II, U1 cells + product 100µM, no stimulation, contact time 7 h): env.100 cpm | Production de Reverse Transcriptase Coups par minute (cpm) (virus HIV-1 [1]; Tableau II, U1 cells + product 100µM, no stimulation, contact time 10 h): <100 cpm | Production de Reverse Transcriptase Coups par minute (cpm) (virus HIV-1 [1]; Tableau III, U1 cells + product 100µM, no stimulation, contact time 0,5 h): 180 cpm | Production de Reverse Transcriptase Coups par minute (cpm) (virus HIV-1 [1]; Tableau III, U1 cells + product 100µM, no stimulation, contact time 2 h): 150 cpm | Production de Reverse Transcriptase Coups par minute (cpm) (virus HIV-1 [1]; Tableau III, U1 cells + product 100µM, no stimulation, contact time 7 h): 180 cpm | Production de Reverse Transcriptase Coups par minute (cpm) (virus HIV-1 [1]; Tableau III, U1 cells + product 100µM, no stimulation, contact time 10 h): 160 cpm | Production de Reverse Transcriptase Coups par minute (cpm) (virus HIV-1 [1]; U1 cells + product 100µM + GM-CSF (100U) + IL6 (100U), contact time before stimulation 0,5 h): 200 cpm | Production de Reverse Transcriptase Coups par minute (cpm) (virus HIV-1 [1]; U1 cells + product 100µM + GM-CSF (100U) + IL6 (100U), contact time before stimulation 2 h): 180 cpm | Production de Reverse Transcriptase Coups par minute (cpm) (virus HIV-1 [1]; U1 cells + product 100µM + GM-CSF (100U) + IL6 (100U), contact time before stimulation 7 h): 170 cpm | Production de Reverse Transcriptase Coups par minute (cpm) (virus HIV-1 [1]; U1 cells + product 100µM + GM-CSF (100U) + IL6 (100U), contact time before stimulation 10 h): 180 cpm | Production de Reverse Transcriptase Coups par minute (cpm) (virus HIV-1 [1]; U1 cells + product 100µM + PMA (10^-7), contact time before stimulation 0,5 h): 4700 cpm | Production de Reverse Transcriptase Coups par minute (cpm) (virus HIV-1 [1]; U1 cells + product 100µM + PMA (10^-7), contact time before stimulation 2 h): 1900 cpm | Production de Reverse Transcriptase Coups par minute (cpm) (virus HIV-1 [1]; U1 cells + product 100µM + PMA (10^-7), contact time before stimulation 7 h): 1900 cpm | Production de Reverse Transcriptase Coups par minute (cpm) (virus HIV-1 [1]; U1 cells + product 100µM + PMA (10^-7), contact time before stimulation 10 h): 900 cpm | Production de Reverse Transcriptase Coups par minute (cpm) (virus HIV-1 [1]; U1 cells + product 100µM + TNFα(100U), contact time before stimulation 0,5 h): 300 cpm | Production de Reverse Transcriptase Coups par minute (cpm) (virus HIV-1 [1]; U1 cells + product 100µM + TNFα(100U), contact time before stimulation 2 h): 200 cpm | Production de Reverse Transcriptase Coups par minute (cpm) (virus HIV-1 [1]; U1 cells + product 100µM + TNFα(100U), contact time before stimulation 7 h): 180 cpm | Production de Reverse Transcriptase Coups par minute (cpm) (virus HIV-1 [1]; U1 cells + product 100µM + TNFα(100U), contact time before stimulation 10 h): env.100 cpm | effet inhibiteur de la réplication du HIV-1 (virus HIV-1 [1]; pretreatment 30 minutes to 24 heures before stimulation by TNF, PMA or GM-CSF + II-6): n'affecte pas l'effet inhibiteur | inhibition at 100 µM (virus HIV-1 [2]; Human immunodeficiency virus 1, 72 h, U1 cells, 100 Unités/ml TNFa, day 3, product 10-^4M, read-out: diminution de l'activité de la reverse transcriptase): 84% | inhibition at 10 µM (virus HIV-1 [2]; Human immunodeficiency virus 1, 72 h, U1 cells, 100 Unités/ml TNFa, day 3, product 10^-5M, read-out: diminution de l'activité de la reverse transcriptase): 50% | diminution de la production virale (virus HIV-1 [2]; U1 cells treated with TNFa): significative et dose-dépendante | action inhibitrice du HIV-1 dans les cellules U1 (virus HIV-1 [2]; stimulated by GM-CSF + II-6): significative
